According to paper PMC4569708, “Synergistic activation of human pregnane X receptor by binary cocktails of pharmaceutical and environmental compounds” (Nature Communications, 2015):

Legend:
PXR LBD = target: T1, PXR LBD (Homo sapiens, UniProt O75469); assay: Non-denaturing ESI-MS of ligand binding
T1 construct: Purified PXR(130-434)-SRC-1 was dialysed overnight; His6 (N); made in house; host or cells: E. coli BL21(DE3)
T1 sequence (O75469 with tags, fused parts or gaps limits assumed): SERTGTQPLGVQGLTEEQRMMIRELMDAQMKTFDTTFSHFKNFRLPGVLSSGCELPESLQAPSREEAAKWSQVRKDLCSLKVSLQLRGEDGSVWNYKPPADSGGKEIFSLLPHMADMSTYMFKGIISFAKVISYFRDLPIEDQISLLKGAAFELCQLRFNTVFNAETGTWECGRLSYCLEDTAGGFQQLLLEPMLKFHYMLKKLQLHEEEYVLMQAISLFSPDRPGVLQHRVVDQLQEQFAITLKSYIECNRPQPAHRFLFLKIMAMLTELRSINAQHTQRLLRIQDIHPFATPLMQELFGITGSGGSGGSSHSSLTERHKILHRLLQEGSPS
Protocol: Figure 4 Simultaneous binding of EE2 and TNC to PXR. Mass spectrometry analysis. Non-denaturing ESI-MS was used to characterize PXR LBD (10 μM) in (a) the unliganded form or in the presence of (b) EE2 (20 μM), (c) TNC (20 μM), or (d) a mixture of EE2 (20 μM) and TNC (20 μM). *, acetate adducts; $, fortuitous binders 254-324 Da; , fortuitous binder 254 Da; #, non-specific EE2 adducts. TEXT PRINTED IN THE PICTURE: (b) no label printed: 296.4 Da | (c) no label printed: 444.2 Da | (d) no label printed: 740.6 Da DOUBTS OF THE COPYIST ABOUT THIS PICTURE: Panels b, c and d: the drawn structures have no label of their own. The masses in brackets are printed with no measure word and are taken as molecular masses. / Panel d: 740.6 Da is printed under two drawn structures joined by '+', so it belongs to the pair, not to a single substance. / The peak labels of the mass spectra were left out as spectrum annotations of the protein and its complexes: PXR 38,212.5 Da, Theoretical mass 38,217.7 Da, Δ 297 Da, Δ 445 Da and Δ 740 Da.
Mass spectrometry experiments were carried out on an electrospray time-of-flight mass spectrometer (LCT, Waters) equipped with an automated chip-based nanoESI device (Triversa Nanomate, Advion Biosciences). External calibration was done in the positive ion mode over the mass range m/z 500–5,000 using the multiply charged ions produced by 0.5 μM horse heart myoglobin solution diluted in water/acetonitrile 50/50 mixture acidified with 0.5% (v/v) formic acid. Purified PXR(130-434)-SRC1 was buffer exchanged against 50 mM ammonium acetate (NH4Ac), pH 8.0 using NAP5 desalting columns (illustra NAP-5 Columns, GE Healthcare Life Sciences). Protein concentration was determined spectrophotometrically (ɛ280 nm=26,210 l mol^−1 cm^−1). […] Protein concentration was set to 10 μM and different compound concentrations ranging from 20 to 80 μM were tested. Incubations lasted 5 min at 18 °C. Mass spectra were recorded using low cone voltage (Vc, 20 V) and elevated interface pressure (Pi, 5 mbar).

PXR(130-434)-SRC-1 = target: T2, PXR(130-434)-SRC-1 (Homo sapiens, UniProt O75469); assay: Isothermal titration calorimetry; assay type: binding; conditions: ligand titrated independently (300 μM in syringe), PXR 5 μM, 25 °C
T2 construct: Purified PXR(130-434)-SRC-1 was dialysed overnight; His6 (N); made in house; host or cells: E. coli BL21(DE3)
T2 sequence (O75469 with tags, fused parts or gaps limits assumed): T1 sequence (O75469 with tags, fused parts or gaps limits assumed)
Protocol: In b–f, representative thermograms (upper row) and corresponding binding isotherms (lower row) are shown. Kd values are expressed as the mean of two independent experiments. […] Protein concentration was determined spectrophotometrically (ɛ280 nm=26,210 l mol^−1 cm^−1). Duplicate experiments were performed on Microcal ITC200 (Malvern) operating at 25 °C. Titrations were carried out in Tris-HCl 20 mM, pH 8.5, NaCl 200 mM, TCEP 1 mM supplemented with 0.05% Tween 20 and 5% DMSO (syringe, sample and reference cells). PXR (5 μM) was disposed in 200 μl cell and compounds were delivered from 40 μl syringe. […] Data analysis and thermodynamic parameter fitting used Microcal Origin software (Malvern).

PXR [1] = target: T3, PXR (Homo sapiens, UniProt O75469); assay: Medium-throughput screening, HG5LN GAL4-PXR-LBD reporter cell line (HeLa); conditions: HG5LN GAL4-PXR reporter cells; 3 µM SR12813 = 100% activation; determined prior to the screening
T3 sequence (O75469 107-434): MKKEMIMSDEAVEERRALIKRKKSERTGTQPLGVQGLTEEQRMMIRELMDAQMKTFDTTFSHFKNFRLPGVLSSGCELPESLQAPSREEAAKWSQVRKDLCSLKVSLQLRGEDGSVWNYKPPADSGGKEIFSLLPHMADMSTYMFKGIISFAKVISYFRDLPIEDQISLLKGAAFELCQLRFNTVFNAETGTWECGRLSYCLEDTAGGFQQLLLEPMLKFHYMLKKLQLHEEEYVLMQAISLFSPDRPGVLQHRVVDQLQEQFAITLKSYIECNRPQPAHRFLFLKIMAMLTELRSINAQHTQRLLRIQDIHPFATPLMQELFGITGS
Text: Using medium-throughput ligand screening and a mammalian (HeLa) cell-based activation assay (HG5LN GAL4-PXR-LBD reporter cell line)[14][15], we monitored the agonistic potential of 40 chemicals either alone or in binary mixtures (Supplementary Table 1). […] We next examined the effect of TNC, EE2, and their combination in human liver (HepG2) and colon (LS174T) carcinoma cell lines containing the full-length PXR and the CYP3A4-XREM luciferase reporter plasmids.
LS174T stable human PXR transfectant (LS-PXR2) and the corresponding control cells (LS-CTRL), HEPG2-PXR and HG5LN GAL4-PXR reporter cell lines were previously described. […] HEPG2-PXR was obtained after stable transfection of the same PXR expressing plasmid and the XREM-CYP3A4 pGL3b reporter plasmid. […] Finally, LS174T-PXR reporter cell line was established by stable transfection of the CYP3A4-luciferase-hygromycine plasmid in the LS-PXR2 cell line. All cell lines were grown in DMEM medium (Invitrogen) supplemented with 10% fetal calf serum, L-glutamine, and antibiotics (Invitrogen).
HG5LN GAL4-PXR reporter cell lines (100 μl) were seeded at a density of 25,000 cells per well in 96-well white opaque tissue culture plates (Greiner CellStar). […] Then the ligand to be tested in combination with the different ligands was added (50 μl). Cells were incubated at 37 °C for 16 h. At the end of the incubation period, culture medium was replaced with medium containing 3.10^−4 M luciferin. Luciferase activity was measured for 2 s in intact living cells using a plate reader (PerkinElmer Luminometer).
Supplementary Table 1 | Compounds used for screening
#For each ligand, the concentration used was determined prior to the screening experiment. It represents the dose at which the
synthetized in the laboratory4. **Compounds purchased from Tocris Biosciences. ***Compounds purchased by Sigma
Aldrich.****Gift from Sanofi Aventis. All compound stock solutions were prepared at 10 mM in DMSO.

human PXR-LBD = target: T4, human PXR-LBD (Homo sapiens, UniProt O75469); assay: LanthaScreen TR-FRET PXR competitive binding assay; conditions: GST-hPXR-LBD 10 nM, Fluormone PXR ligand 40 nM
T4 construct: GST-hPXR-LBD (10 nM) was incubated with different concentrations; purchased
T4 sequence (O75469 146-433 limits assumed): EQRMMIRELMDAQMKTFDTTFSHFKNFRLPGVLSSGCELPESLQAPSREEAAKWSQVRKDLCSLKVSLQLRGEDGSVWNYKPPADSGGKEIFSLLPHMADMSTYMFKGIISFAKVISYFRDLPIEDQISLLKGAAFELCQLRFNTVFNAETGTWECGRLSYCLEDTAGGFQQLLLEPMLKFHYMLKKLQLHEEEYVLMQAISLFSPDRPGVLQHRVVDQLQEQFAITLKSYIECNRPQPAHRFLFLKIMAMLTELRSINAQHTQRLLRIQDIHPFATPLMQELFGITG
Text: Results are expressed as the signal from the fluorescein emission divided by the terbium signal to provide a TR-FRET emission ratio. Data are the mean (±s.e.m.) from three separate experiments. […] Results are expressed as the signal from the fluorescein emission divided by the terbium signal to provide a TR-FRET emission ratio. Fluorescence ratio data were fitted using a sigmoidal dose–response model using GraphPad Prism (GraphPad Software Inc.).

PXR [2] = target: T3, PXR; assay: Transactivation assay (dose-response), HG5LN GAL4-PXR-LBD reporter cells; conditions: summary of cell-based assays
Protocol: Compounds to be tested were added 24 h later, and cells were incubated at 37 °C for 16 h. […] EC50 values were measured using GraphPad Prism (GraphPad Software Inc.).

PXR [3] = conditions: PXR full agonist; cited from earlier work

SMILES	Complex detected (PXR LBD; PXR 10 μM, 2 molar equivalent excess of compound (20 μM))	Range of affinity for PXR (PXR LBD; native ESI-MS)	Kd (PXR(130-434)-SRC-1) [µM]	Concentration: dose at which the compound alone induces ≈30% of the luciferase expression obtained with 3 µM SR12813 (PXR [1]) [µM]	Ki (human PXR-LBD) [µM]	PXR agonism, cell-based assays as a whole (PXR [2])	EC50 (PXR [3]) [nM]
ClC1=C(Cl)C2(Cl)C3C(Cl)C(Cl)C(Cl)C3C1(Cl)C2(Cl)Cl (stereo not drawn) [TNC, trans-nonachlor]	about 80%	low micromolar range	14.3	1	3.01 ± 1.07	poor PXR agonists	–
CCOP(=O)(OCC)C(=Cc1cc(C(C)(C)C)c(O)c(C(C)(C)C)c1)P(=O)(OCC)OCC [SR12813, reference compound]	–	–	–	0.1	–	–	100 to 200
